# Measured values taken from the NIST ThermoML archive (doi:10.1016/j.jct.2017.06.001).
# ± gives the expanded uncertainty stated by the source.
# Assay: xn = mol fraction of the nth substance listed
# Conditions: 318.15 K, 100 kPa, Liquid; for speed of sound: Frequency=5 MHz, Pulse-echo method; for mass density: Vibrating tube method
structure (smiles),measurement,setting,value
"OCCCCCO [1,5-pentanediol] + O",speed of sound,x1 = 0.1836,1646.1 ± 1.3 m/s
same,speed of sound,x1 = 0.1877,1645.8 ± 1.3 m/s
same,speed of sound,x1 = 0.1923,1645.5 ± 1.3 m/s
same,speed of sound,x1 = 0.1928,1645.4 ± 1.3 m/s
same,speed of sound,x1 = 0.1977,1645 ± 1.3 m/s
same,speed of sound,x1 = 0.2017,1644.7 ± 1.3 m/s
same,speed of sound,x1 = 0.2025,1644.6 ± 1.3 m/s
same,speed of sound,x1 = 0.2049,1644.4 ± 1.3 m/s
same,speed of sound,x1 = 0.2132,1643.6 ± 1.3 m/s
same,speed of sound,x1 = 0.2224,1642.7 ± 1.3 m/s
same,speed of sound,x1 = 0.2331,1641.6 ± 1.3 m/s
same,speed of sound,x1 = 0.2482,1640 ± 1.3 m/s
same,speed of sound,x1 = 0.2698,1637.7 ± 1.4 m/s
same,speed of sound,x1 = 0.2859,1635.9 ± 1.4 m/s
same,speed of sound,x1 = 0.2955,1634.9 ± 1.4 m/s
same,speed of sound,x1 = 0.312,1633 ± 1.4 m/s
same,speed of sound,x1 = 0.3191,1632.2 ± 1.4 m/s
same,speed of sound,x1 = 0.3352,1630.3 ± 1.4 m/s
same,speed of sound,x1 = 0.3499,1628.6 ± 1.4 m/s
same,speed of sound,x1 = 0.3678,1626.5 ± 1.4 m/s
same,speed of sound,x1 = 0.3857,1624.3 ± 1.5 m/s
same,speed of sound,x1 = 0.4054,1621.9 ± 1.5 m/s
same,speed of sound,x1 = 0.4216,1619.8 ± 1.5 m/s
same,speed of sound,x1 = 0.4392,1617.6 ± 1.5 m/s
same,speed of sound,x1 = 0.4494,1616.3 ± 1.5 m/s
same,speed of sound,x1 = 0.4703,1613.5 ± 1.6 m/s
same,speed of sound,x1 = 0.4894,1611 ± 1.6 m/s
same,speed of sound,x1 = 0.5038,1609.1 ± 1.6 m/s
same,speed of sound,x1 = 0.5212,1606.7 ± 1.6 m/s
same,speed of sound,x1 = 0.5442,1603.6 ± 1.6 m/s
same,speed of sound,x1 = 0.565,1600.8 ± 1.7 m/s
same,speed of sound,x1 = 0.5841,1598.3 ± 1.7 m/s
same,speed of sound,x1 = 0.6039,1595.7 ± 1.7 m/s
same,speed of sound,x1 = 0.6258,1592.8 ± 1.8 m/s
same,speed of sound,x1 = 0.6425,1590.6 ± 1.8 m/s
same,speed of sound,x1 = 0.6602,1588.3 ± 1.8 m/s
same,speed of sound,x1 = 0.6789,1586 ± 1.8 m/s
same,speed of sound,x1 = 0.6988,1583.5 ± 1.9 m/s
same,speed of sound,x1 = 0.7197,1581 ± 1.9 m/s
same,speed of sound,x1 = 0.7436,1578.2 ± 1.9 m/s
same,speed of sound,x1 = 0.7664,1575.6 ± 1.9 m/s
same,speed of sound,x1 = 0.7919,1572.7 ± 2 m/s
same,speed of sound,x1 = 0.8187,1569.8 ± 2 m/s
same,speed of sound,x1 = 0.8416,1567.3 ± 2.1 m/s
same,speed of sound,x1 = 0.864,1564.8 ± 2.1 m/s
same,speed of sound,x1 = 0.8864,1562.4 ± 2.1 m/s
same,speed of sound,x1 = 0.9086,1560 ± 2.2 m/s
same,speed of sound,x1 = 0.926,1558 ± 2.2 m/s
same,speed of sound,x1 = 0.9413,1556.3 ± 2.2 m/s
same,speed of sound,x1 = 0.9573,1554.4 ± 2.2 m/s
same,speed of sound,x1 = 0.971,1552.7 ± 2.3 m/s
same,speed of sound,x1 = 0.9808,1551.5 ± 2.3 m/s
same,speed of sound,x1 = 0.9903,1550.3 ± 2.3 m/s
same,speed of sound,x1 = 0.9952,1549.7 ± 2.3 m/s
same,speed of sound,x1 = 1,1549 ± 2.3 m/s
same,mass density,x1 = 0.005,989.65 ± 0.52 kg/m3
same,mass density,x1 = 0.0101,989.41 ± 1 kg/m3
same,mass density,x1 = 0.0196,989.31 ± 1 kg/m3
same,mass density,x1 = 0.0251,989.53 ± 1 kg/m3
same,mass density,x1 = 0.0304,989.77 ± 1 kg/m3
same,mass density,x1 = 0.05,990.21 ± 1 kg/m3
same,mass density,x1 = 0.0769,990.38 ± 1 kg/m3
same,mass density,x1 = 0.1002,990.62 ± 1.1 kg/m3
same,mass density,x1 = 0.1438,990.42 ± 1.1 kg/m3
same,mass density,x1 = 0.1845,989.72 ± 1.1 kg/m3
same,mass density,x1 = 0.2503,988.52 ± 1.2 kg/m3
same,mass density,x1 = 0.3,987.37 ± 1.2 kg/m3
same,mass density,x1 = 0.3343,986.64 ± 1.3 kg/m3
same,mass density,x1 = 0.4171,985.02 ± 1.4 kg/m3
same,mass density,x1 = 0.454,984.19 ± 1.4 kg/m3
same,mass density,x1 = 0.5003,983.3 ± 1.5 kg/m3
same,mass density,x1 = 0.5362,982.6 ± 1.5 kg/m3
same,mass density,x1 = 0.6177,981.2 ± 1.7 kg/m3
same,mass density,x1 = 0.6478,980.7 ± 1.7 kg/m3
same,mass density,x1 = 0.7025,979.9 ± 1.8 kg/m3
same,mass density,x1 = 0.7504,979.2 ± 1.9 kg/m3
same,mass density,x1 = 0.7927,978.5 ± 2 kg/m3
same,mass density,x1 = 0.8605,977.4 ± 2.1 kg/m3
same,mass density,x1 = 0.9004,976.7 ± 2.2 kg/m3
